Measured values: ChEMBL document CHEMBL1201862, “PubChem BioAssay data set” (2004)
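The compound was tested at five concentrations on cells cultured in 96-well plates, with a 48-hour exposure period. The concentration for 50% growth inhibition is given as GI50.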 Calls of active or inactive are those of the source. No stated cut-off is given here; in the data, active = GI50 up to about 1.1 µM and inactive = higher.

Tests used:
Experiment in all cases: inhibition of tumour cell growth, NCI panel, 48 h
786-0 = test system: 786-0
A498 = test system: A498
A549 = test system: A549
ACHN = test system: ACHN
CCRF-CEM = test system: CCRF-CEM
COLO 205 = test system: COLO 205
DU-145 = test system: DU-145
EKVX = test system: EKVX
HCT-116 = test system: HCT-116
HCT-15 = test system: HCT-15
HOP-62 = test system: HOP-62
HOP-92 = test system: HOP-92
HT-29 = test system: HT-29
Hs-578T = test system: Hs-578T
IGROV-1 = test system: IGROV-1
K562 = test system: K562
KM12 = test system: KM12
LOX IMVI = test system: LOX IMVI
M14 = test system: M14
MCF7 = test system: MCF7
MDA-MB-231 = test system: MDA-MB-231
MDA-MB-435 = test system: MDA-MB-435
MDA-N = test system: MDA-N
MOLT-4 = test system: MOLT-4
Malme-3M = test system: Malme-3M
NCI-H226 = test system: NCI-H226
NCI-H23 = test system: NCI-H23
NCI-H522 = test system: NCI-H522
NCI/ADR-RES = test system: NCI/ADR-RES
OVCAR-3 = test system: OVCAR-3
OVCAR-4 = test system: OVCAR-4
OVCAR-5 = test system: OVCAR-5
OVCAR-8 = test system: OVCAR-8
PC-3 = test system: PC-3
RPMI-8226 = test system: RPMI-8226
SF-268 = test system: SF-268
SF-295 = test system: SF-295
SK-MEL-28 = test system: SK-MEL-28
SK-MEL-2 = test system: SK-MEL-2
SK-MEL-5 = test system: SK-MEL-5
SK-OV-3 = test system: SK-OV-3
SN12C = test system: SN12C
SNB-19 = test system: SNB-19
SNB-75 = test system: SNB-75
SR = test system: SR
SW-620 = test system: SW-620
TK-10 = test system: TK-10
U-251 = test system: U-251
UACC-62 = test system: UACC-62
UO-31 = test system: UO-31
CAKI-1 = test system: CAKI-1
HL-60 = test system: HL-60
RXF 393 = test system: RXF 393
SF-539 = test system: SF-539
T47D = test system: T47D

SMILES: COc1ccc(/C=C2\NC(=S)N(CN3CCCCC3)C2=O)cc1
- GI50 (786-0): 36.6 µM (inactive)
- GI50 (A498): 51.9 µM (inactive)
- GI50 (A549): 72.1 µM (inactive)
- GI50 (ACHN): 33.9 µM (inactive)
- GI50 (CCRF-CEM): 39.5 µM (inactive)
- GI50 (COLO 205): 35.2 µM (inactive)
- GI50 (DU-145): 71 µM (inactive)
- GI50 (EKVX): 34.4 µM (inactive)
- GI50 (HCT-116): 34.6 µM (inactive)
- GI50 (HCT-15): 24.6 µM
- GI50 (HOP-62): > 100 µM (inactive)
- GI50 (HOP-92): 76 µM (inactive)
- GI50 (HT-29): 18.3 µM (inactive)
- GI50 (Hs-578T): 17.8 µM (inactive)
- GI50 (IGROV-1): 44.2 µM (inactive)
- GI50 (K562): 34.5 µM (inactive)
- GI50 (KM12): 73.1 µM (inactive)
- GI50 (LOX IMVI): 30.5 µM (inactive)
- GI50 (M14): 50.7 µM (inactive)
- GI50 (MCF7): 21.8 µM (inactive)
- GI50 (MDA-MB-231): > 100 µM (inactive)
- GI50 (MDA-MB-435): 52.7 µM (inactive)
- GI50 (MDA-N): 70.1 µM (inactive)
- GI50 (MOLT-4): 28.6 µM (inactive)
- GI50 (Malme-3M): 30.3 µM (inactive)
- GI50 (NCI-H226): 42.2 µM (inactive)
- GI50 (NCI-H23): 77.1 µM (inactive)
- GI50 (NCI-H522): 30.7 µM (inactive)
- GI50 (NCI/ADR-RES): 26.9 µM (inactive)
- GI50 (OVCAR-3): 71.6 µM (inactive)
- GI50 (OVCAR-4): 20 µM (inactive)
- GI50 (OVCAR-5): > 100 µM (inactive)
- GI50 (OVCAR-8): 15.4 µM (inactive)
- GI50 (PC-3): 78.7 µM (inactive)
- GI50 (RPMI-8226): 27.1 µM (inactive)
- GI50 (SF-268): 18.2 µM (inactive)
- GI50 (SF-295): 69.7 µM (inactive)
- GI50 (SK-MEL-28): > 100 µM (inactive)
- GI50 (SK-MEL-2): > 100 µM (inactive)
- GI50 (SK-MEL-5): 36.1 µM (inactive)
- GI50 (SK-OV-3): > 100 µM (inactive)
- GI50 (SN12C): > 100 µM (inactive)
- GI50 (SNB-19): 37 µM (inactive)
- GI50 (SNB-75): 21 µM (inactive)
- GI50 (SR): 38.1 µM (inactive)
- GI50 (SW-620): 29.3 µM (inactive)
- GI50 (TK-10): 83.6 µM (inactive)
- GI50 (U-251): 61.7 µM (inactive)
- GI50 (UACC-62): 44.7 µM (inactive)
- GI50 (UO-31): 37.1 µM (inactive)

SMILES: Nc1nc(Nc2ccccc2)sc1C(=O)c1ccc(Cl)cc1
- GI50 (A498): 2.4 µM (inactive)
- GI50 (CAKI-1): 0.71 µM (active)
- GI50 (CCRF-CEM): > 100 µM (inactive)
- GI50 (COLO 205): > 100 µM (inactive)
- GI50 (EKVX): > 58.9 µM (inactive)
- GI50 (HCT-15): > 100 µM
- GI50 (HL-60): > 100 µM (inactive)
- GI50 (HOP-62): 2.88 µM (inactive)
- GI50 (HOP-92): 3.39 µM (inactive)
- GI50 (HT-29): > 100 µM (inactive)
- GI50 (IGROV-1): 3.72 µM (inactive)
- GI50 (K562): > 100 µM (inactive)
- GI50 (KM12): > 100 µM (inactive)
- GI50 (M14): > 100 µM (inactive)
- GI50 (MCF7): 4.39 µM (inactive)
- GI50 (MDA-MB-231): 4.3 µM (inactive)
- GI50 (MDA-MB-435): 1.3 µM (inactive)
- GI50 (MOLT-4): 8.99 µM (inactive)
- GI50 (NCI-H23): 8.17 µM (inactive)
- GI50 (OVCAR-4): 0.748 µM (active)
- GI50 (OVCAR-5): > 100 µM (inactive)
- GI50 (RXF 393): 2.69 µM (inactive)
- GI50 (SF-268): 1.35 µM (inactive)
- GI50 (SF-295): 3.7 µM (inactive)
- GI50 (SF-539): > 100 µM (inactive)
- GI50 (SK-MEL-28): > 100 µM (inactive)
- GI50 (SK-MEL-2): 15.1 µM (inactive)
- GI50 (SK-OV-3): 2.46 µM (inactive)
- GI50 (SNB-19): 3.24 µM (inactive)
- GI50 (SNB-75): 2.48 µM (inactive)
- GI50 (SR): 1.36 µM (inactive)
- GI50 (SW-620): 4.13 µM (inactive)
- GI50 (T47D): > 95.1 µM (inactive)
- GI50 (TK-10): 5.12 µM (inactive)
- GI50 (U-251): 2.69 µM (inactive)
